From patent US6632616B2, “Compounds that selectively bind to expanded polyglutamine repeat domains and methods of use thereof” (Duke University, priority 2000, dated 2003)

Legend:
[1] = test system: thio-Q62; assay: Thioredoxin-polyglutamine turbidity (aggregation) assay, thio-Q62; type: biochemical; conditions: for Ability to Inhibit Aggregation: 62 glutamines, 10 days
Procedure: (§1) Turbidity assays were performed in 200 μl reactions consisting of thioredoxin-polyglutamine in PBS in 96-well, low protein binding plates. Plates were incubated at 4° C. and turbidity measured at 405 nm on a Thermo Max plate reader (Molecular Devices).
(§2) Peptides were synthesized at the Howard Hughes Medical Institute peptide sequencing facility at Duke University with an acetylated amino terminus and protection of tryptophan with BOC during synthesis. Identical results were obtained with peptides obtained from Bio-Synthesis Inc. (Lewisville, Tex.). Stock solutions of peptides were prepared fresh daily by dissolving in dimethyl sulfoxide at 2.5 mM and incubated with thioredoxin-polyglutamine protein at 0.25-25 μM.
(§3) To monitor thioredoxin-polyglutamine protein aggregation a turbidometric assay was developed, similar to the assays commonly used to study microtubule assembly and β-amyloid aggregation (Jarrett, J. T. et al. (1993) Biochem 32, 4693-4697; Sloboda, R. D. et al. (1976) Biochem 15, 4497-4505). Solutions of thio-Q62 and 81 protein increased turbidity in a polyglutamine length-, time- and concentration-dependent manner (FIG. 1B and C; Time dependence of aggregation of thioredoxin-polyglutamine with 81 glutamines not shown). […] The pelleted and retained material was confirmed as thioredoxin-polyglutamine fusion protein containing 62 or 81 glutamines on western blots probed with anti-thioredoxin or anti-polyglutamine antibody (not shown). In contrast, thioredoxin-polyglutamine protein containing 19 or 35 glutamines (thio-Q19 or 35) was not pelleted by centrifugation and was not trapped by a 0.22 μm filter.

[2] = test system: COS 7 cells expressing Q81-YFP; assay: Peptides added to transfected COS 7 cells expressing Q81-YFP: cell death; type: cell-based
Text: (§4) Several proteins can ferry peptides or proteins into cells through the plasma membrane including HIV transactivator protein (TAT) (SEQ ID NO:37), antennapedia (SEQ ID NO:38), and herpes simplex virus type 1 protein 22 (SEQ ID NO:39) (Prochiantz, Curr Opin Cell Biol. 12:400-406 (2000)). […] The arginine-rich domains of these proteins are sufficient to transport some intact proteins even when fused to non-native proteins. The ability of polyglutamine-binding peptides fused to a TAT fragment to enter transfected COS 7 cells and inhibit polyglutamine aggregation and cell death was examined.

[3] = test system: Q81-YFP; assay: Peptides added to transfected COS 7 cells expressing Q81-YFP: aggregation; type: cell-based
Text: as §4

[4] = test system: thio-Q19 or 35; assay: Thioredoxin-polyglutamine turbidity assay, nonpathologic thio-Q19 or 35; type: biochemical
Procedure: as §1, §2, §3

[5] = test system: Q57-YFP induced cell death; assay: Q57-YFP induced cell death in co-transfected COS-7 cells (ethidium homodimer); type: cell-based; conditions: peptides fused to CFP, co-expressed; COS-7, 48 hours; ethidium homodimer
Procedure: FIG. 5. […] Open bar=cells co-transfected with Q57-YFP and RAN-CFP. Hatched bar=cells co-transfected with Q57-YFP and SCR-CFP. Filled bar=cells co-transfected with Q57-YFP and QBP1-CFP. Dotted bar=cells co-transfected with Q57-YFP and (QBPI)2-CFP. COS-7 cells examined 48 hours after transfection using a Zeiss fluorescence microscope with rhodamine filter set. The percentage of dead cells was calculated by counting the number of transfected cells stained with ethidium homodimer and dividing by the total number of transfected cells multiplied times 100. In each experiment at least 200 transfected cells were counted. Experiments were repeated at least three times. Error bars represent standard errors. *=p<0.05; **=p<0.01 (Student's t-test).
COS-7 cells were grown and maintained in Dulbecco's modified Eagles' medium (DMEM) supplemented with 10% fetal calf serum (FCS). Cells were transfected with Effectene according to manufacturer's instructions (Qiagen GmbH, Hilden, Germany). Cells were examined 48 hours after transfection using a Zeiss fluorescence microscope equipped with YFP/CFP filter sets (Omega Optical Inc., Brattleboro, Vt.). The percentage of cells with aggregates was calculated by dividing the number of cells with aggregates by the total number of fluorescent cells, multiplied by 100. Cell viability was examined 48 hours after transfection using ehtidium homodimer (Molecular Probes, Eugene, Oreg.). Cells were incubated with 5 μM ethidium homodimer for 30 minutes (37° C.) and then examined under a fluorescence microscope equipped with a rhodamine filter set. Cells with nuclear fluorescence were counted as dead. In each experiment at least 200 transfected cells were counted. Cells expressing random peptide-CFP (RAN-CFP) and polyglutamine-YFP (Qn-YFP) were used as a control to calculate the relative difference in aggregate formation and cell death. Experiments were repeated at least four times.
The relationship between polyglutamine protein aggregation and cell death is controversial. To determine whether QBP1 or tandem-QBP1 inhibit polyglutamine-induced cell death, cell membrane permeability to ethidium homodimer was assayed. The membranes of living cells are impermeable to ethidium homodimer and permeability to ethidium homodimer is a well-established measure of cell death. Ethidium homodimer undergoes a 30-fold increase in fluorescence upon binding to nucleic acid allowing easy detection with a fluorescence microscope using a rhodamine filter. QBP1 and tandem QBP1 ((QBP1)2) fused to CFP inhibit Q57-YFP induced cell death (FIG. 5). […] Similar results have also been observed with Q45- and Q81-YFP (not shown).

[6] = 5 μm peptide and 15 μM thio-polyglutamine
[7] = versus random peptide fused to TAT
[8] = TAT-fused peptides, 10 μm peptide and 15 μM thio-polyglutamine

thio-Q62, sequence (as listed by the source): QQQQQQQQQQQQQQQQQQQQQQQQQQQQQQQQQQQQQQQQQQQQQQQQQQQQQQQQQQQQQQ
Q81-YFP, sequence (as listed by the source): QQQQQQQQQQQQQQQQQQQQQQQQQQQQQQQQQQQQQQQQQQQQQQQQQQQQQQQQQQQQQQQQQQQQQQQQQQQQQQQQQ

WKWWPGIF
inhibition of polyglutamine-thioredoxin aggregation (FIG. 6 and 7) [1]: retains full inhibitory activity

WKWWPGIFD
effect on cell death (in words) ([2]; peptide added to cells): no effect
effect on aggregation in cells (in words) ([3]; peptide added to cells): no effect
Ability to Inhibit Aggregation [1, 6]: ++++ (++++ = full inhibition)

WKWWPGIFD-TAT (WKWWPGIFDGGYGRKKRRQRRR)
inhibition of cell death [2, 7]: 39%
percentage of transfected cells that died ([2]; within 72 hours): 6.0%
percentage of transfected cells with Q81-YFP aggregates ([3]; peptide added to cells): 22.1%
inhibition of Q81-YFP aggregation [3, 7]: 32%
Ability to Inhibit Aggregation [1, 8]: +++ (+++ = 75% inhibition)

WKWWPWKWW
Ability to Inhibit Aggregation [1, 6]: +++ (+++ = 75% inhibition)

WKWWPWKWW-TAT (WKWWPWKWWGGYGRKKRRQRRR)
Ability to Inhibit Aggregation [1, 8]: ++++ (++++ = full inhibition)

WKWWVWKWW
Ability to Inhibit Aggregation [1, 6]: ++ (++ = 50% inhibition)

WKWWVWKWWP
Ability to Inhibit Aggregation [1, 6]: ++++ (++++ = full inhibition)

WKWWVWKWWP-TAT (WKWWVWKWWPGGYGRKKRRQRRR)
Ability to Inhibit Aggregation [1, 8]: ++++ (++++ = full inhibition)

WLWWPGIFD
Ability to Inhibit Aggregation [1, 6]: ++ (++ = 50% inhibition)

WPIWSKGNDWF [SCR, reference compound]
effect on turbidity of nonpathologic thio-Q19 or 35 [4]: no effect
inhibition of Q57-YFP induced cell death [5]: does not inhibit cell death
inhibition of thio-Q62 aggregation (in words) ([1]; turbidity at 405 nm, FIG. 2): did not inhibit aggregation

WVWWPGIFD
Ability to Inhibit Aggregation [1, 6]: +++ (+++ = 75% inhibition)

WWWWPGIFD
Ability to Inhibit Aggregation [1, 6]: ++ (++ = 50% inhibition)
